One test addresses PIK3CG (human) (UniProt P48736). The test is described as follows: Enzyme Assay.
The next test has as its target PIK3CD (Human) (UniProt O00329). The test is described as follows: Enzyme Assay.

Each structure is given as a SMILES string.

Sequence of PIK3CD (Human) (O00329 whole entry, looked up): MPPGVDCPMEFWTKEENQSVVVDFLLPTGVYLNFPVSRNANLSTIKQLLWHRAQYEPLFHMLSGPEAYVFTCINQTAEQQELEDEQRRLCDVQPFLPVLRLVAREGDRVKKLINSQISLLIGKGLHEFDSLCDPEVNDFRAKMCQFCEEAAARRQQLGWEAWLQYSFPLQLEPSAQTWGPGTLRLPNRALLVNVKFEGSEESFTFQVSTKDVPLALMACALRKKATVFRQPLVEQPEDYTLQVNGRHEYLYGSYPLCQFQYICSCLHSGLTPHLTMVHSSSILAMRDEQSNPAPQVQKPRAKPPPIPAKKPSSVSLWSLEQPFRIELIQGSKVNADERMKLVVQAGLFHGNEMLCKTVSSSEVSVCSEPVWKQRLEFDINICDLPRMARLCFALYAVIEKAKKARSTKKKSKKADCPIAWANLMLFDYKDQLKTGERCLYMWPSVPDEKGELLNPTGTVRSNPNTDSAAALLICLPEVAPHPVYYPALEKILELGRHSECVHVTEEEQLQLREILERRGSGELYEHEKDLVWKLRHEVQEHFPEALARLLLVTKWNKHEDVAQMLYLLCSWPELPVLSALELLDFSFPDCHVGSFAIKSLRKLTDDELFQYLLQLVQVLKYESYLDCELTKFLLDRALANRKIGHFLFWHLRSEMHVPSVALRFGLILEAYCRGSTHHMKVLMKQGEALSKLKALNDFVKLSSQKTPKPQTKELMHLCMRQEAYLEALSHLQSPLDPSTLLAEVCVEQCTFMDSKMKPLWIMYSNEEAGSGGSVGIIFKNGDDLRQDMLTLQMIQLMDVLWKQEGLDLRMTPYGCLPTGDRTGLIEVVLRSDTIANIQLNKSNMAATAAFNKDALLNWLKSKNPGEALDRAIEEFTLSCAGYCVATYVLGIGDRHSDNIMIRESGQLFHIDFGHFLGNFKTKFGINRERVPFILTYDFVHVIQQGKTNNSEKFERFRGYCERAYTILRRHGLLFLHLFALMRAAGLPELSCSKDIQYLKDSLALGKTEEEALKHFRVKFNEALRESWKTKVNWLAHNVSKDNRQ
Sequence of PIK3CG (human) (P48736 whole entry, looked up): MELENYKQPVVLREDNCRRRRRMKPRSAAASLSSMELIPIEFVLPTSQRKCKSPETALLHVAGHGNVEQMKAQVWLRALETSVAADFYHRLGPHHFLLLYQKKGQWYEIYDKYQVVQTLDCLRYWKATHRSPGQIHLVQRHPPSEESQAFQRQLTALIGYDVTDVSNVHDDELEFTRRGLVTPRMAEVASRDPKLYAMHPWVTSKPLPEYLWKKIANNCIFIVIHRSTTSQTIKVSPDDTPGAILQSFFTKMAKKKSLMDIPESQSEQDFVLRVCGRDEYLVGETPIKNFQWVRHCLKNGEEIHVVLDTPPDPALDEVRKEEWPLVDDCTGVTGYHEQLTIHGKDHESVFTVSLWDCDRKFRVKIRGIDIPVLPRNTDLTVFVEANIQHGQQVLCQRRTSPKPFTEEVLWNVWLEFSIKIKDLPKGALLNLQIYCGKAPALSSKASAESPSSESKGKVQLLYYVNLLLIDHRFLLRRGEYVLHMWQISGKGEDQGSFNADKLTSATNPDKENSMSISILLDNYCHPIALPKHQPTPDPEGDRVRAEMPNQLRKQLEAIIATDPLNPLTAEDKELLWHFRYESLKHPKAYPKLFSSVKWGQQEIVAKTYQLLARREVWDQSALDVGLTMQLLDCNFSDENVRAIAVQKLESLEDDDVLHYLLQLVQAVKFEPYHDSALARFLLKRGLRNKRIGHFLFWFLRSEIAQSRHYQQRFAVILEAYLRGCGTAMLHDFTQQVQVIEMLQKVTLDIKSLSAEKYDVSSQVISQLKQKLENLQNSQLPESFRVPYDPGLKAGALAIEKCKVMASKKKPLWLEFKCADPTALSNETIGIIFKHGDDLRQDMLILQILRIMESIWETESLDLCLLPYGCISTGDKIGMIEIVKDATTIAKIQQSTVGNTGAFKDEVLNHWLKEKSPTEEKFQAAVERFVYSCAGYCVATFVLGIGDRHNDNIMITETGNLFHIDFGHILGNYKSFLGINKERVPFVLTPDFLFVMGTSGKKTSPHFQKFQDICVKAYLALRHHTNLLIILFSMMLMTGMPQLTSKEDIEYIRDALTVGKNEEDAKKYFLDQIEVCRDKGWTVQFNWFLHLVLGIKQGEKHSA

As for `CCC(Nc1nc(N)ncc1-c1cncc(S(=O)(=O)C(C)C)c1)c1nc2cccc(F)c2c(=O)n1-c1ccccc1` (configuration not stated), the IC50 against PIK3CG (human) was 100 to 1000 nM; at PIK3CD (Human) it was 20 to 100 nM. The like results for `CCC(Nc1nc(N)ncc1-c1cncc(S(=O)(=O)N2CCCC2)c1)c1nc2cccc(F)c2c(=O)n1-c1ccccc1` (configuration not stated) were, in that order, less than 20 nM and less than 20 nM. At PIK3CD (Human), `CCC(Nc1nc(N)nc(C)c1/C=C/C(=O)N1CCNCC1)c1nc2cccc(C)c2c(=O)n1-c1ccccc1` (configuration not stated) registered an IC50 of 10 to 100 nM. At PIK3CD (Human), `CCC(Nc1nc(N)nc(C)c1/C=C/C(=O)Nc1cccc(C)n1)c1nc2cccc(C)c2c(=O)n1-c1ccccc1` (configuration not stated) had an IC50 of less than 10 nM.

`CCC(Nc1nc(N)nc(C)c1-c1cncc(S(N)(=O)=O)c1)c1nc2cccc(F)c2c(=O)n1-c1ccccc1` (configuration not stated): the IC50 against PIK3CG (human) lay within 100 to 1000 nM; at PIK3CD (Human), 20 to 100 nM. `CCNC(=O)/C=C/c1c(C)nc(N)nc1NC(CC)c1nc2cccc(C)c2c(=O)n1-c1ccccc1` (configuration not stated): the IC50 against PIK3CD (Human) was 10 to 100 nM. Same read-out and setting: to `CCC(Nc1nc(N)nc(C)c1/C=C/C(=O)Nc1ccncc1)c1nc2cccc(C)c2c(=O)n1-c1ccccc1` (configuration not stated) belongs 10 to 100 nM; to `CCC(Nc1nc(N)nc(C)c1/C=C/C(=O)NC(C)C)c1nc2cccc(C)c2c(=O)n1-c1ccccc1` (configuration not stated), 10 to 100 nM; to `CCC(Nc1nc(N)nc(C)c1/C=C1\CC(=O)NC1=O)c1nc2cccc(C)c2c(=O)n1-c1ccccc1` (configuration not stated), 10 to 100 nM.

With `CCC(Nc1nc(N)ncc1-c1cncc(S(N)(=O)=O)c1)c1nc2cccc(F)c2c(=O)n1-c1ccccc1` (configuration not stated), the IC50 on PIK3CG (human) and against PIK3CD (Human) was 20 to 100 nM in each case. Regarding `CCC(Nc1nc(N)nc(C)c1/C=C/C(N)=O)c1nc2cccc(C)c2c(=O)n1-c1ccccc1` (configuration not stated), the IC50 at PIK3CD (Human) is less than 10 nM. For `CCC(Nc1nc(N)ncc1-c1cncc(S(=O)(=O)Nc2ccccc2F)c1)c1nc2cccc(F)c2c(=O)n1-c1ccccc1` (configuration not stated), the IC50 was 20 to 100 nM against PIK3CG (human) and less than 20 nM at PIK3CD (Human). Regarding `CCC(Nc1nc(N)nc(C)c1/C=C/C(=O)n1cccn1)c1nc2cccc(C)c2c(=O)n1-c1ccccc1` (configuration not stated), the IC50 at PIK3CD (Human) lay in the range of 10 to 100 nM. On to `CCC(Nc1nc(N)nc(C)c1/C=C/C(=O)Nc1cccnc1)c1nc2cccc(C)c2c(=O)n1-c1ccccc1` (configuration not stated), for which the IC50 on PIK3CD (Human) was less than 10 nM. `CCC(Nc1nc(N)ncc1-c1cncc(S(=O)(=O)N(C)C)c1)c1nc2cccc(F)c2c(=O)n1-c1ccccc1` (configuration not stated): the IC50 against PIK3CG (human) and at PIK3CD (Human) was 20 to 100 nM throughout. Consider `CCC(Nc1nc(N)nc(C)c1/C=C/C(=O)Nc1ccccn1)c1nc2cccc(C)c2c(=O)n1-c1ccccc1` (configuration not stated), for which the IC50 at PIK3CD (Human) is less than 10 nM.

Consider `CCC(Nc1nc(N)ncc1-c1cncc(S(=O)(=O)Nc2ccccc2C)c1)c1nc2cccc(F)c2c(=O)n1-c1ccccc1` (configuration not stated), for which the values for the IC50 against PIK3CG (human) and at PIK3CD (Human) were 100 to 1000 nM and less than 20 nM, respectively. As to `CCC(Nc1nc(N)ncc1-c1cncc(S(=O)(=O)Nc2ccc(F)c(Cl)c2)c1)c1nc2cccc(F)c2c(=O)n1-c1ccccc1` (configuration not stated), the IC50 at PIK3CG (human) is 20 to 100 nM; at PIK3CD (Human) it was less than 20 nM. Take `CCC(Nc1nc(N)nc(C)c1/C=C/C(=O)N1CCOCC1)c1nc2cccc(C)c2c(=O)n1-c1ccccc1` (configuration not stated): the IC50 on PIK3CD (Human) was less than 10 nM. `CCC(Nc1nc(N)ncc1-c1cncc(S(=O)(=O)NC(C)(C)C)c1)c1nc2cccc(C)c2c(=O)n1-c1ccccc1` (configuration not stated): the IC50 on PIK3CG (human) was 20 to 100 nM; against PIK3CD (Human) it was less than 20 nM. On PIK3CD (Human), `C=Cc1c(C)nc(N)nc1NC(CC)c1nc2cccc(C)c2c(=O)n1-c1ccccc1` (configuration not stated) yielded an IC50 of 10 to 100 nM. With `CCC(Nc1nc(N)nc(C)c1/C=C/C(=O)Nc1nccs1)c1nc2cccc(C)c2c(=O)n1-c1ccccc1` (configuration not stated), the IC50 on PIK3CD (Human) is less than 10 nM. Still for that read-out and setting: to `CCC(Nc1nc(N)nc(C)c1/C=C/C(=O)NC)c1nc2cccc(C)c2c(=O)n1-c1ccccc1` (configuration not stated) belongs less than 10 nM.

The values above are taken from the Kinase Knowledgebase extract (Sharma et al. 2016).
